Measured values reported in patent EP4671247A1, “SUBSTITUTED PYRAZOLOPYRIMIDINE COMPOUND AND PHARMACEUTICAL USE THEREOF” (Japan Tobacco Inc., priority 2023, dated 2024).

Molecular target: T1, NLRP3 inflammasome (Homo sapiens, UniProt Q96P20)
T1 construct: host or cells: THP1-Null cells (PMA-differentiated, LPS-primed, nigericin-stimulated)
Experiment: Evaluation of NLRP3 inflammasome inhibitory activity (inhibition of IL-1β production in LPS/Nigericin-stimulated THP1-Null cells, AlphaLISA)
Assay type: cell-based
Settings: IL-1β production in THP1-Null cells; for IC50: PMA, 1 µg/mL Lipopolysaccharides 3 hours, Nigericin 7.5 µmol/L 1.5 hours, read-out: IC50
Procedure, shortened: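 THP1-Null cells were primed with 1 µg/mL LPS, then given test compound and stimulated with nigericin. IL-1β in the culture supernatant was quantified by AlphaLISA. Inhibition was calculated with blank wells set as 100% and control wells as 0%.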

T1 sequence (Q96P20 whole entry): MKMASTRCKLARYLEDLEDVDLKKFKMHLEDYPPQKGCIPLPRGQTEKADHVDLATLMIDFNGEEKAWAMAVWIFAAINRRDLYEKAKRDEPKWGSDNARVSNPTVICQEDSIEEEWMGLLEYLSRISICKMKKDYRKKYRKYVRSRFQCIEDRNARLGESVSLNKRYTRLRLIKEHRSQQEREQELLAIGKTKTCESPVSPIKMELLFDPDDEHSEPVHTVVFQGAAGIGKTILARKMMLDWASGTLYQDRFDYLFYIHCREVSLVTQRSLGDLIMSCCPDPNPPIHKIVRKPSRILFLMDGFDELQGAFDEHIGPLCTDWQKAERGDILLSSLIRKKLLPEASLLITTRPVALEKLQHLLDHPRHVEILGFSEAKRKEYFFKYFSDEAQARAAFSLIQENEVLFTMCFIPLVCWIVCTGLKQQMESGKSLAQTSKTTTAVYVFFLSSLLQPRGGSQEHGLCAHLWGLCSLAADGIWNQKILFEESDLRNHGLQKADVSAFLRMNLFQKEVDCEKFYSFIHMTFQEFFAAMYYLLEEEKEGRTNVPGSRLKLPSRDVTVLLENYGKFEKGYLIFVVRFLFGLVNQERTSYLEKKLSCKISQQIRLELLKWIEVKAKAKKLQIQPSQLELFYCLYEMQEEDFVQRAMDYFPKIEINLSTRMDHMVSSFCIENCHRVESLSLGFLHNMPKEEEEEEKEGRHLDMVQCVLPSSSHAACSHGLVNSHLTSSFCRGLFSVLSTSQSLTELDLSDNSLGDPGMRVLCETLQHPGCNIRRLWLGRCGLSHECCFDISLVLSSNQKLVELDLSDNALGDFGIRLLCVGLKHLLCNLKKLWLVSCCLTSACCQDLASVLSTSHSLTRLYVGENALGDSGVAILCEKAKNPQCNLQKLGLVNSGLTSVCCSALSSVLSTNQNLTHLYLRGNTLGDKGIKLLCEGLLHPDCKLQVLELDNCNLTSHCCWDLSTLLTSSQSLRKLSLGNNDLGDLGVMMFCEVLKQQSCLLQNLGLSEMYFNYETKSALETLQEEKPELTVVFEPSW

SMILES: Cc1cc(OC(F)F)cc(C)c1-n1cc2c(=O)[nH]c(COC(F)F)nc2n1 [Example 148]
- IC50: 61 nM

SMILES: Cc1cc(C(C)(F)F)cc(C)c1-n1cc2c(=O)[nH]c(C3=CCOCC3)nc2n1 [Example 153]
- IC50: 17 nM

SMILES: Cc1cc(OC(F)F)cc(C)c1-n1cc2c(=O)[nH]c(C3(F)CC3)nc2n1 [Example 159]
- IC50: 57 nM

SMILES: Cc1cc(Br)cc(C)c1-n1cc2c(=O)[nH]c(CC3CC3)nc2n1 [Example 161]
- IC50: 10 nM

SMILES: Cc1cc(C(C)(F)F)cc(C)c1-n1cc2c(=O)[nH]c(C3(F)CC3)nc2n1 [Example 162]
- IC50: 57 nM

SMILES: Cc1cc(OC(F)F)cc(C)c1-n1cc2c(=O)[nH]c(CC3CC3)nc2n1 [Example 164]
- IC50: 67 nM

SMILES: Cc1cc(OC(F)F)cc(C)c1-n1cc2c(=O)[nH]c(C3=COCC3)nc2n1 [Example 175]
- inhibition at 0.002 µM (test compound at 0.002 µM): 54%

SMILES: CCc1nc2nn(-c3c(C)cc(OC(F)F)cc3C)cc2c(=O)[nH]1 [Example 180]
- IC50: 20 nM

SMILES: CCc1nc2nn(-c3c(C)cc(C(C)(F)F)cc3C)cc2c(=O)[nH]1 [Example 181]
- IC50: 18 nM

SMILES: Cc1cc(Br)cc(C)c1-n1cc2c(=O)[nH]c([C@H]3CCOCCO3)nc2n1 [Example 185]
- IC50: 23 nM

SMILES: Cc1cc(Br)cc(C)c1-n1cc2c(=O)[nH]c([C@@H]3CCOCCO3)nc2n1 [Example 186]
- IC50: 87 nM

SMILES: CCc1nc2nn(-c3c(C)cc(C4(F)CC4)cc3C)cc2c(=O)[nH]1 [Example 192]
- IC50: 20 nM

SMILES: Cc1cc(C2CC2)cc(C)c1-n1cc2c(=O)[nH]c(C(=O)N(C)C)nc2n1 [Example 195]
- IC50: 180 nM

SMILES: CNC(=O)c1nc2nn(-c3c(C)cc(C4CC4)cc3C)cc2c(=O)[nH]1 [Example 196]
- IC50: 22 nM

SMILES: O=c1[nH]c(C2CC2)nc2nn(-c3ccc(C4CC4)cc3C(F)(F)F)cc12 [Example 198]
- IC50: 11 nM

SMILES: Cc1cc(C2CC2)cc(C)c1-n1cc2c(=O)[nH]c(C#N)nc2n1 [Example 199]
- IC50: 240 nM

SMILES: COCc1nc2nn(-c3c(C)cc(C(C)(F)F)cc3C)cc2c(=O)[nH]1 [Example 200]
- IC50: 75 nM

SMILES: Cc1cc(C2CC2)cc(C)c1-n1cc2c(=O)[nH]c(C(=O)NC3COC3)nc2n1 [Example 201]
- IC50: 740 nM

SMILES: Cc1cc(C(C)(F)F)cc(C)c1-n1cc2c(=O)[nH]c(COC(F)F)nc2n1 [Example 202]
- IC50: 40 nM

SMILES: Cc1cc(C2CC2)cc(C)c1-n1cc2c(=O)[nH]c(C(N)=O)nc2n1 [Example 203]
- IC50: 290 nM

SMILES: Cc1cc(C2CC2)cc(C)c1-n1cc2c(=O)[nH]c(C(=O)NCC(F)F)nc2n1 [Example 204]
- IC50: 50 nM

SMILES: CCNC(=O)c1nc2nn(-c3c(C)cc(C4CC4)cc3C)cc2c(=O)[nH]1 [Example 205]
- IC50: 11 nM

SMILES: CC(=O)c1nc2nn(-c3c(C)cc(C(C)(F)F)cc3C)cc2c(=O)[nH]1 [Example 206]
- IC50: 360 nM

SMILES: CNC(=O)c1nc2nn(-c3c(C)cc(C(C)(F)F)cc3C)cc2c(=O)[nH]1 [Example 207]
- IC50: 270 nM

SMILES: Cc1cc(C(C)(F)F)cc(C)c1-n1cc2c(=O)[nH]c(CCO)nc2n1 [Example 208]
- IC50: 66 nM

SMILES: Cc1cc(OC(F)F)cc(C)c1-n1cc2c(=O)[nH]c(CCO)nc2n1 [Example 209]
- IC50: 25 nM

SMILES: COc1nc(C)nc2nn(-c3c(C)cc(Br)cc3C)cc12 [Example 210, 2-(4-bromo-2,6-dimethylphenyl)-4-methoxy-6-methyl-2H-pyrazolo[3,4-d]pyrimidine]
- inhibition at 24 µM (test compound at 24 µM): 9%

SMILES: O=c1[nH]c(C2CC2)nc2nn(-c3cc4c(cc3Cl)OCCC4)cc12 [Example 211]
- IC50: 27 nM
